Assay results: ChEMBL document CHEMBL3044856, “Molecular docking of glycogen synthase kinase3- inhibitor oleanolic acid and its wound-healing activity in rats” (Med Chem Res, 2013)
Active and inactive are the calls of the source. The calls are words filed in the database; no cut-off is given here.

Assays:
Mus musculus [1] = assay: Acute toxicity in Swiss albino Mus musculus (mouse) assessed as abnormal behavior up to 120 mg/kg, ip; type: organism-based; set-up: dose 120 mg/kg, route intraperitoneal; conditions: in vivo
Mus musculus [2] = assay: Wound-healing activity in Swiss albino Mus musculus (mouse) dead space wound model assessed as increase in wet weight of granuloma tissue at 3 mg/ml, ip measured on day 10 (reference value: 79.56 +/- 1.05 mg); type: functional
Mus musculus [3] = assay: Wound-healing activity in Swiss albino Mus musculus (mouse) dead space wound model assessed as increase in hydroxyproline content measured per 100 g of tissue at 3 mg/ml, ip measured on day 10 (reference value: 1411.15 +/- 6.26 ug); type: functional
Mus musculus [4] = assay: Wound-healing activity in Swiss albino Mus musculus (mouse) assessed as increase in collagenation in granulation tissue at 3 mg/ml, ip measured on day 10 by hematoxylin and eosin staining-based histological analysis relative to untreated control; type: functional, organism-based
Mus musculus [5] = assay: Wound-healing activity in Swiss albino Mus musculus (mouse) incision wound model assessed as increase in tensil strength of incision wound at 12 mg/kg/day, ip measured on day 10 (reference value: 356.13 +/- 14.55 g); type: functional; conditions: route intraperitoneal
Mus musculus [6] = assay: Wound-healing activity in Swiss albino Mus musculus (mouse) excision wound model assessed as closure of excision wound area at 3 mg/ml, ip measured on day 16 (reference value: 81.36 +/- 0.83%); type: functional
Mus musculus [7] = assay: Acute toxicity in Swiss albino Mus musculus (mouse) assessed as mortality up to 120 mg/kg, ip; type: organism-based; set-up: dose 120 mg/kg, route intraperitoneal; conditions: in vivo
Mus musculus [8] = assay: Wound-healing activity in Swiss albino Mus musculus (mouse) excision wound model assessed as time required for complete epithelialization of excision wound at 3 mg/ml, ip (reference value: 22.75 +/- 0.13 days); type: functional
Mus musculus [9] = assay: Wound-healing activity in Swiss albino Mus musculus (mouse) excision wound model assessed as closure of excision wound area at 3 mg/ml, ip measured on day 4 (reference value: 25.32 +/- 3.31%); type: functional
Mus musculus [10] = assay: Wound-healing activity in Swiss albino Mus musculus (mouse) assessed as decrease in macrophage accumulation in granulation tissue at 3 mg/ml, ip measured on day 10 by hematoxylin and eosin staining-based histological analysis relative to untreated control; type: functional, organism-based
Mus musculus [11] = assay: Wound-healing activity in Swiss albino Mus musculus (mouse) dead space wound model assessed as increase in tissue breaking strength at 3 mg/ml, ip measured on day 10 (reference value: 366.32 +/- 14.40 g); type: functional
Mus musculus [12] = assay: Wound-healing activity in Swiss albino Mus musculus (mouse) excision wound model assessed as closure of excision wound area at 3 mg/ml, ip measured on day 12 (reference value: 66.04 +/- 0.94%); type: functional
Mus musculus [13] = assay: Wound-healing activity in Swiss albino Mus musculus (mouse) dead space wound model assessed as increase in dry weight of granuloma tissue at 3 mg/ml, ip measured on day 10 (reference value: 11.52 +/- 0.9 mg); type: functional
Mus musculus [14] = assay: Wound-healing activity in Swiss albino Mus musculus (mouse) excision wound model assessed as closure of excision wound area at 3 mg/ml, ip measured on day 8 (reference value: 54.64 +/- 1.17%); type: functional
Mus musculus [15] = assay: Wound-healing activity in ip dosed Swiss albino Mus musculus (mouse) dead space wound model assessed as increase in hydroxyproline content measured per 100 g of tissue measured on day 10 (reference value: 1411.15 +/- 6.26 ug); type: functional
Mus musculus [16] = assay: Wound-healing activity in ip dosed Swiss albino Mus musculus (mouse) dead space wound model assessed as increase in tissue breaking strength measured on day 10 (reference value: 366.32 +/- 14.40 g); type: functional
Mus musculus [17] = assay: Wound-healing activity in ip dosed Swiss albino Mus musculus (mouse) excision wound model assessed as closure of excision wound area measured on day 16 (reference value: 81.36 +/- 0.83%); type: functional
Mus musculus [18] = assay: Wound-healing activity in ip dosed Swiss albino Mus musculus (mouse) excision wound model assessed as closure of excision wound area measured on day 8 (reference value: 54.64 +/- 1.17%); type: functional
Mus musculus [19] = assay: Wound-healing activity in ip dosed Swiss albino Mus musculus (mouse) excision wound model assessed as closure of excision wound area measured on day 12 (reference value: 66.04 +/- 0.94%); type: functional
Mus musculus [20] = assay: Wound-healing activity in ip dosed Swiss albino Mus musculus (mouse) dead space wound model assessed as increase in wet weight of granuloma tissue measured on day 10 (reference value: 79.56 +/- 1.05 mg); type: functional
Mus musculus [21] = assay: Wound-healing activity in ip dosed Swiss albino Mus musculus (mouse) incision wound model assessed as increase in tensil strength of incision wound measured on day 10 (reference value: 356.13 +/- 14.55 g); type: functional
Mus musculus [22] = assay: Wound-healing activity in ip dosed Swiss albino Mus musculus (mouse) assessed as decrease in macrophage accumulation in granulation tissue measured on day 10 by hematoxylin and eosin staining-based histological analysis relative to untreated control; type: functional, organism-based
Mus musculus [23] = assay: Wound-healing activity in ip dosed Swiss albino Mus musculus (mouse) excision wound model assessed as closure of excision wound area measured on day 4 (reference value: 25.32 +/- 3.31%); type: functional
Mus musculus [24] = assay: Wound-healing activity in ip dosed Swiss albino Mus musculus (mouse) excision wound model assessed as time required for complete epithelialization of excision wound (reference value: 22.75 +/- 0.13 days); type: functional
Mus musculus [25] = assay: Wound-healing activity in ip dosed Swiss albino Mus musculus (mouse) dead space wound model assessed as increase in dry weight of granuloma tissue measured on day 10 (reference value: 11.52 +/- 0.9 mg); type: functional
Mus musculus [26] = assay: Wound-healing activity in ip dosed Swiss albino Mus musculus (mouse) assessed as increase in collagenation in granulation tissue measured on day 10 by hematoxylin and eosin staining-based histological analysis relative to untreated control; type: functional, organism-based

Compound: CC1(C)CC[C@]2(C(=O)O)CC[C@]3(C)C(=CC[C@@H]4[C@@]5(C)CC[C@H](O)C(C)(C)[C@@H]5CC[C@]43C)[C@@H]2C1 [OLEANOLIC_ACID]
- Activity (Mus musculus [1]): Non-toxic
- Activity (Mus musculus [2]): 127.12 mg
- Activity (Mus musculus [3]): 2124.91 µg
- Activity (Mus musculus [4]): Active
- Activity (Mus musculus [5]): 580.83 g
- Activity (Mus musculus [6]): 96.82%
- Activity (Mus musculus [7]): Non-toxic
- Time (Mus musculus [8]): 18.48 days
- Activity (Mus musculus [9]): 36.13%
- Activity (Mus musculus [10]): Active
- Activity (Mus musculus [11]): 599.08 g
- Activity (Mus musculus [12]): 86.06%
- Activity (Mus musculus [13]): 26.25 mg
- Activity (Mus musculus [14]): 79.11%

Compound: Nc1ccc(S(=O)(=O)Nc2nccs2)cc1 [SULFATHIAZOLE]
- Activity (Mus musculus [15]): 2427.33 µg
- Activity (Mus musculus [16]): 617.39 g
- Activity (Mus musculus [17]): 96.94%
- Activity (Mus musculus [18]): 74.54%
- Activity (Mus musculus [19]): 84.46%
- Activity (Mus musculus [20]): 131.4 mg
- Activity (Mus musculus [21]): 582.04 g
- Activity (Mus musculus [22]): Active
- Activity (Mus musculus [23]): 39.94%
- Time (Mus musculus [24]): 18.36 days
- Activity (Mus musculus [25]): 28.42 mg
- Activity (Mus musculus [26]): Active
